In publication PMC8574098 (Journal of natural products, 2021):

Biological target: matrix metalloproteinase-3 (MMP-3) (Homo sapiens, UniProt P08254)
Assay: MMP-3 enzyme inhibition assay
Format: biochemical

Sequence of matrix metalloproteinase-3 (MMP-3) (P08254 100-477): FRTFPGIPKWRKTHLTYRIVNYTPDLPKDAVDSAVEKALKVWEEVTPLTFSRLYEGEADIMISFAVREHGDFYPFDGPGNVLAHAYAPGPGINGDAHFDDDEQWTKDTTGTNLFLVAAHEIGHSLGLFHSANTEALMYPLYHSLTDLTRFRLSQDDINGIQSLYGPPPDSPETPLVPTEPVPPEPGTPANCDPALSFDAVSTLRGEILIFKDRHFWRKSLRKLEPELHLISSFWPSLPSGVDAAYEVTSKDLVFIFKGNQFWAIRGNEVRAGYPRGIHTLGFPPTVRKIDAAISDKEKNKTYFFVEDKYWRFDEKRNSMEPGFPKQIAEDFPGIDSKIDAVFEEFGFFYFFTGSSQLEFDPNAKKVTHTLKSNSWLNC

How did the IC50 turn out when berkeleypenostatin E [compound 5] was run?
The IC50 was 50 µM.
